Results from ChEMBL document CHEMBL2010676, “Metabolites of Microcystis aeruginosa bloom material from Lake Kinneret, Israel” (J Nat Prod, 2012).
The source made the active and inactive calls. The calls are words filed in the database; no cut-off is given here.

What was measured:
[1] = molecular target: Prothrombin (Homo sapiens) (UniProt P00734); assay: Induction of thrombin activity at 45.5 uM
[2] = Inhibition of chymotrypsin at 45.5 uM
[3] = Inhibition of elastase at 45.5 uM
[4] = Inhibition of trypsin
[5] = molecular target: Prothrombin (Homo sapiens) (UniProt P00734); assay: Inhibition of thrombin at 45.5 uM
[6] = test system: HCT-116; assay: Cytotoxicity against human HCT116 cells at 1.6 uM; type: functional, cell-based
[7] = Inhibition of trypsin at 45.5 uM
[8] = molecular target: T1, Aminopeptidase N (Bos taurus) (UniProt P79098); assay: Inhibition of bovine amino peptidase N at 45.5 uM
T1 sequence (whole entry): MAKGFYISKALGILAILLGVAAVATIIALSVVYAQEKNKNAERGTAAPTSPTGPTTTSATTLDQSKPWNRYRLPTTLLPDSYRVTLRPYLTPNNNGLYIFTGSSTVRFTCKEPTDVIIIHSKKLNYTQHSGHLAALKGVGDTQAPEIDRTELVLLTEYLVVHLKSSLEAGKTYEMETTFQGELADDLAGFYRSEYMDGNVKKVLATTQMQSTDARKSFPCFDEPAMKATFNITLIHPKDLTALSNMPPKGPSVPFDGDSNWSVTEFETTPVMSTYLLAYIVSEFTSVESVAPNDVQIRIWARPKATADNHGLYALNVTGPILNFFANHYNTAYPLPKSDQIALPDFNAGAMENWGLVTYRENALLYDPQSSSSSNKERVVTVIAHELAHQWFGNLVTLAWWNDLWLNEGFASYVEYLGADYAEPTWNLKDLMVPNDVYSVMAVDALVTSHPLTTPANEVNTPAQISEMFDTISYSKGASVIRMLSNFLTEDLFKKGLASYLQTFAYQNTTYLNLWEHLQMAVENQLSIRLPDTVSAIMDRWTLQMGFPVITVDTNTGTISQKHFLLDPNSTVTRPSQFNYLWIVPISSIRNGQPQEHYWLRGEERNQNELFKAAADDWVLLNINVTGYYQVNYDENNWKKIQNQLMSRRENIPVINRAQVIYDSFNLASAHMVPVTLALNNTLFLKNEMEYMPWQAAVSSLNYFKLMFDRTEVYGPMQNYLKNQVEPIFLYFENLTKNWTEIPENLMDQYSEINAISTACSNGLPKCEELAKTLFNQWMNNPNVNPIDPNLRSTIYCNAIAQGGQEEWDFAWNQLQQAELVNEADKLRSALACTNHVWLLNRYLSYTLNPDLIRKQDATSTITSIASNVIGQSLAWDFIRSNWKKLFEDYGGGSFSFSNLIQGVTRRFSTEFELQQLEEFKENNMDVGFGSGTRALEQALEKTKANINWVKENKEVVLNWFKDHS

[9] = Inhibition of chymotrypsin

Row | SMILES | Activity [1] | inhibition [2] | inhibition [3] | IC50 [4] | inhibition [5] | Activity [6] | inhibition [7] | inhibition [8] | IC50 [9]
1 | N=C(N)NCCCCNC(=O)[C@H]1C[C@H]2CC[C@@H](O)C[C@H]2N1C(=O)[C@@H](Cc1ccccc1)NC(=O)[C@@H](O)Cc1ccc(O)cc1 | 30% | inactive | inactive | 1.9 µM | – | – | – | – | –
2 | N=C(N)NCCCCNC(=O)[C@H]1C[C@H]2CC[C@@H](O)C[C@H]2N1C(=O)[C@@H](Cc1ccccc1)NC(=O)[C@H](O)Cc1ccc(O)cc1 | – | inactive | inactive | 1.3 µM | < 50% | – | – | – | –
3 | CC(=O)O[C@H](Cc1ccc(O)cc1)C(=O)N[C@H](Cc1ccccc1)C(=O)N1[C@@H](C(=O)NCCCCNC(=N)N)C[C@H]2CC[C@@H](O)C[C@H]21 | – | inactive | inactive | 19.9 µM | < 50% | – | – | – | –
4 | CC(C)C[C@@H](NC(=O)[C@H](O)Cc1ccc(O)cc1)C(=O)N[C@@H](Cc1ccccc1)C(=O)NCCCCNC(=N)N | – | inactive | inactive | 45.5 µM | inactive | – | – | – | –
5 | CC(OC(=O)C(CCCNC(=N)N)[N+](C)(C)C)C(OS(=O)(=O)[O-])c1ccc(OS(=O)(=O)O)c(COS(=O)(=O)O)c1 (stereo not drawn) | – | – | – | – | inactive | inactive | inactive | inactive | –
6 | CC(=O)O[C@@H]1CC[C@@H]2C[C@H](C(N)=O)N(C(=O)[C@@H](Cc3ccc(O)cc3)NC(=O)[C@@H](O)Cc3ccc(O)cc3)[C@@H]2C1 | – | inactive | inactive | 45.5 µM | inactive | – | – | – | –
7 | CC[C@@H](C)[C@H]1C(=O)N(C)[C@@H](Cc2ccccc2)C(=O)N[C@@H](C(C)C)C(=O)O[C@H](C)[C@H](NC(=O)[C@H](CCC(N)=O)NC(=O)[C@H](O)Cc2ccc(O)cc2)C(=O)N[C@@H](Cc2ccc(O)cc2)C(=O)N[C@H]2CC[C@@H](O)N1C2=O (relative stereo) | – | – | inactive | – | inactive | – | inactive | – | 0.26 µM
